Measurements published in patent US20180344696A1, “SYNERGISTIC COMBINATION OF PYRROLIDONE CARBOXYLIC ACID AND/OR SALTS THEREOF AND HYALURONIC ACID AND/OR SALTS THEREOF, FOR USE IN THE TREATMENT AND/OR PREVENTION OF DRYNESS AND IRRITATION OF THE MUCOSAE, AND RELATED PHARMACEUTICAL FORMULATIONS” (LABORATORI BALDACCI S.P.A., priority 2015, published 2018).

Assays:
[1] = Determination of PCA permanence on the nasal mucosa (HPLC recovery after applying gel); assay type: in vivo, human
Description: The samples were taken at various time points after administration, in order to accurately collect all the material present on the mucosa. After restoring to a certain volume of water (20 ml), the suspension obtained was filtered, and then 20 μl were injected into a chromatograph for quantitative analysis. A Waters liquid chromatograph with the following parameters was used: • Column: μBondapack C18 • Mobile phase: 0.1 M phosphoric acid at pH 3 with sodium hydroxide. • Flow: 1.5 ml/min • Detector: Spectrophotometer at 210 nm

[2] = Permanence of PCA in mucosal tissue after topical application (general statements); assay type: in vivo
[3] = Hygroscopic test according to Farmacopea Ufficiale Italiana (FUI) XII; assay type: physicochemical; conditions: 5.00 g dried sample, 25° C., 24 hours
Description: The determination of hygroscopicity of the combination of PCA and hyaluronic acid was performed, a test related to the hydration capability of a compound or mixture of compounds, to evaluate the synergism of the combination of PCA and hyaluronic acid for use in the treatment and/or prevention of dryness and irritation of the mucosae. […] At the end of the procedure, the contained was closed with its lid and weighed again (m3).

Compound | PCA percentage present in the nasal mucosa, % of recovery based on the standard ([1]; T = 0 after administration, 100 mg gel of Example 2 (1% PCA, 0.05% hyaluronic acid) on nasal mucosa) [% n = 1] | PCA percentage present in the nasal mucosa, % of recovery based on the standard ([1]; T = 60 after administration, 100 mg gel of Example 2 on nasal mucosa) [% n = 2] | PCA percentage present in the nasal mucosa, % of recovery based on the standard ([1]; T = 120 after administration, 100 mg gel of Example 2 on nasal mucosa) [% n = 2] | PCA percentage present in the nasal mucosa, % of recovery based on the standard ([1]; T = 180 after administration, 100 mg gel of Example 2 on nasal mucosa) [% n = 3] | Time PCA is present on the nasal mucosa after application ([1]; gel formulation from Example 2 on the nasal mucosa) [h] | Administered amount of PCA identified in mucosal tissues ([2]; 4 hours after a topical application of the formulations of the invention) | Time PCA remains in the mucosae ([2]; after topical application) [h] | Result (hygroscopicity class) [3] | Water adsorption (%) (average of the triplicate) [3] | Water adsorption (g) (average of the triplicate) [3] | Final Weight ([3]; desiccator with saturated ammonium chloride or ammonium sulfate solution) [g]
O=C1CCC(C(=O)O)N1 (centres unmarked) [PCA, Pyrrolidone carboxylic acid] | 95 | 80 | 78 | 70 | ≥ 4 | approximately 80% | > 4 | – | – | – | –
Hyaluronic acid [100% HA] | – | – | – | – | – | – | – | hygroscopic | 6.00 | 0.30 | 5.30 ± 0.05
